Starred links: 1 amine or outer side, 2 acyl side, 3 side chain; linkers in the order of their positions; H or OH if unused. Positions of bridges follow the written chain, without caps; N, C: chain ends. Non-standard residues stand in square brackets, D forms with d. Residues, ends and D or L forms follow the SMILES beside them. *: point of attachment. Phe(4-(CH2)5CO) = O=C([C@H](Cc1ccc(CCCCCC(=O)[*:3])cc1)N[*:1])[*:2]; Phe(3-(CH2)4CO) = O=C([C@H](Cc1cccc(CCCCC(=O)[*:3])c1)N[*:1])[*:2]; NMeF = CN[C@@H](Cc1ccccc1)C(=O)O; NMeI = CC[C@H](C)[C@H](NC)C(=O)O; NMeL = CN[C@@H](CC(C)C)C(=O)O; NMeV = CN[C@H](C(=O)O)C(C)C; NMeA = CN[C@@H](C)C(=O)O; Piperidide = C1CCN(*)CC1; NPrGly = CCCNCC(=O)O; Sar = CNCC(=O)O; tBu = CC(C)(C)*
Assay: Metabolic stability in human hepatic microsome
Type: in vitro ADME
Settings: microsomes, pH 7.4; human hepatic microsome, NADPH(+); read-out: CL NADPH(+)

| SMILES | microsomal CLint at 1 uM |
| --- | --- |
| C=C1CCC(=O)N(C)[C@@H](Cc2ccccc2)C(=O)N[C@@H](CC(C)C)C(=O)N(C)[C@@H](CC(C)C)C(=O)N[C@@H]([C@@H](C)O)C(=O)N(C)CC(=O)N(C)[C@@H]([C@@H](C)CC)C(=O)N[C@@H](COC(C)(C)C)C(=O)N(C)[C@@H](Cc2ccccc2)C(=O)N(C)[C@@H](C(C)C)C(=O)N[C@H](C(=O)N2CCCCC2)Cc2ccc1cc2 [DP-850] | 119 µL/min/mg |
| C=C1CCC(=O)N(C)[C@@H](Cc2ccccc2)C(=O)N[C@@H](CC(C)C)C(=O)N(C)[C@@H](CC(C)C)C(=O)N[C@@H]([C@@H](C)O)C(=O)N(C)CC(=O)N(C)[C@@H]([C@@H](C)CC)C(=O)N[C@@H](COC(C)(C)C)C(=O)N(C)[C@@H](Cc2ccccc2)C(=O)N(C)[C@@H](C(C)C)C(=O)N[C@H](C(=O)N2CCCCC2)Cc2cccc1c2 [DP-851] | 99 µL/min/mg |
| CC[C@H](C)[C@H]1C(=O)N[C@@H](COC(C)(C)C)C(=O)N(C)[C@@H](Cc2ccccc2)C(=O)N(C)[C@@H](C(C)C)C(=O)N[C@H](C(=O)N2CCCCC2)Cc2cccc(c2)CCCCC(=O)N(C)[C@@H](Cc2ccccc2)C(=O)N[C@@H](CC(C)C)C(=O)N(C)[C@@H](CC(C)C)C(=O)N[C@@H]([C@@H](C)O)C(=O)N(C)CC(=O)N1C [DP-853] ([NMeF]L[NMeL]T[Sar][NMeI]S(tBu)[NMeF][NMeV][Phe(3-(CH2)4CO)]-Piperidide; lactam N-10) | 120 µL/min/mg |
| C=C1CCC(=O)N[C@@H](CC(C)C)C(=O)N(C)[C@@H](CC(C)C)C(=O)N(C)[C@@H](Cc2ccccc2)C(=O)N[C@@H](C)C(=O)N(C)[C@@H](Cc2ccccc2)C(=O)N(C)[C@@H]([C@@H](C)CC)C(=O)N[C@@H]([C@@H](C)O)C(=O)N(C)CC(=O)N(C)[C@@H](CC(C)C)C(=O)N[C@H](C(=O)N2CCCCC2)Cc2ccc1cc2 [DP-854] | 252 µL/min/mg |
| C=C1CCC(=O)N[C@@H](CC(C)C)C(=O)N(C)[C@@H](CC(C)C)C(=O)N(C)[C@@H](Cc2ccccc2)C(=O)N[C@@H](C)C(=O)N(C)[C@@H](Cc2ccccc2)C(=O)N(C)[C@@H]([C@@H](C)CC)C(=O)N[C@@H]([C@@H](C)O)C(=O)N(C)CC(=O)N(C)[C@@H](CC(C)C)C(=O)N[C@H](C(=O)N2CCCCC2)Cc2cccc1c2 [DP-855] | 210 µL/min/mg |
| CC[C@H](C)[C@H]1C(=O)N[C@@H]([C@@H](C)O)C(=O)N(C)CC(=O)N(C)[C@@H](CC(C)C)C(=O)N[C@H](C(=O)N2CCCCC2)Cc2cccc(c2)CCCCC(=O)N[C@@H](CC(C)C)C(=O)N(C)[C@@H](CC(C)C)C(=O)N(C)[C@@H](Cc2ccccc2)C(=O)N[C@@H](C)C(=O)N(C)[C@@H](Cc2ccccc2)C(=O)N1C [DP-857] (L[NMeL][NMeF]A[NMeF][NMeI]T[Sar][NMeL][Phe(3-(CH2)4CO)]-Piperidide; lactam N-10) | 284 µL/min/mg |
| CC(C)C[C@H]1C(=O)N(C)[C@@H](CC(C)C)C(=O)N[C@@H](C)C(=O)N(C)[C@@H](CC(C)C)C(=O)N(C)[C@@H](Cc2ccccc2)C(=O)N(C)[C@@H](Cc2ccccc2)C(=O)N[C@@H]([C@@H](C)O)C(=O)N(C)[C@@H](C)C(=O)N(C)[C@@H](CC(C)C)C(=O)N[C@H](C(=O)N2CCCCC2)Cc2cccc(c2)CCCCC(=O)N1C [DP-859] ([NMeL][NMeL]A[NMeL][NMeF][NMeF]T[NMeA][NMeL][Phe(3-(CH2)4CO)]-Piperidide; lactam N-10) | 87 µL/min/mg |
| CC[C@H](C)[C@H]1C(=O)N(C)[C@@H](C)C(=O)N(C)[C@@H](Cc2ccccc2)C(=O)N[C@@H]([C@@H](C)O)C(=O)N(C)[C@@H](Cc2ccccc2)C(=O)N(C)[C@@H](CC(C)C)C(=O)N2CCC[C@H]2C(=O)N[C@H](C(=O)N2CCCCC2)Cc2cccc(c2)CCCCC(=O)NCC(=O)N(C)[C@@H](CC(C)C)C(=O)N1C [DP-860] (G[NMeL][NMeI][NMeA][NMeF]T[NMeF][NMeL]P[Phe(3-(CH2)4CO)]-Piperidide; lactam N-10) | 322 µL/min/mg |
| C=C1CCC(=O)N[C@@H](CC(C)C)C(=O)N2CCC[C@H]2C(=O)N[C@@H]([C@@H](C)O)C(=O)N(C)CC(=O)N[C@@H](Cc2ccccc2)C(=O)N(C)[C@@H](C(C)C)C(=O)N(C)[C@@H](C)C(=O)N[C@@H](CC(C)C)C(=O)N(C)[C@@H](CC(C)C)C(=O)N[C@H](C(=O)N2CCCCC2)Cc2cccc1c2 [DP-866] | 211 µL/min/mg |
| CCCN1CC(=O)N(C)[C@@H](Cc2ccccc2)C(=O)N[C@@H](C)C(=O)N(C)[C@@H](Cc2ccccc2)C(=O)N(C)[C@@H](CC(C)C)C(=O)N(C)[C@@H]([C@@H](C)CC)C(=O)N(C)[C@@H](CC(C)C)C(=O)N[C@H](C(=O)N2CCCCC2)Cc2cccc(c2)CCCCC(=O)N[C@@H](CC(C)C)C(=O)N[C@@H]([C@@H](C)O)C1=O [DP-867] (LT[NPrGly][NMeF]A[NMeF][NMeL][NMeI][NMeL][Phe(3-(CH2)4CO)]-Piperidide; lactam N-10) | 211 µL/min/mg |
| C=C1CCC(=O)N[C@@H](CC(C)C)C(=O)N2CCC[C@H]2C(=O)N(C)[C@@H](C(C)C)C(=O)N[C@@H](Cc2ccccc2)C(=O)N(C)[C@@H](Cc2ccccc2)C(=O)N(C)[C@@H](CC(C)C)C(=O)N[C@@H](C)C(=O)N(C)[C@@H]([C@@H](C)CC)C(=O)N[C@H](C(=O)N2CCCCC2)Cc2cccc1c2 [DP-870] | 474 µL/min/mg |
| C=C1CCC(=O)N[C@@H](C(C)C)C(=O)N(C)[C@@H](C)C(=O)N(C)[C@@H](CC(C)C)C(=O)N[C@@H](CC(C)C)C(=O)N[C@@H](Cc2ccccc2)C(=O)N(C)[C@@H](Cc2ccccc2)C(=O)N[C@@H]([C@@H](C)CC)C(=O)N2CCC[C@H]2C(=O)N[C@@H]([C@@H](C)O)C(=O)N(C)[C@@H](CC(C)C)C(=O)N[C@H](C(=O)N2CCCCC2)Cc2cccc1c2 [DP-884] | 64 µL/min/mg |
| C=C1CCC(=O)N[C@@H](CC(C)C)C(=O)N[C@@H](C(C)C)C(=O)N(C)[C@@H](CC(C)C)C(=O)N[C@@H](Cc2ccccc2)C(=O)N(C)[C@@H](Cc2ccccc2)C(=O)N[C@@H]([C@@H](C)CC)C(=O)N(C)[C@@H](C)C(=O)N[C@@H](CC(C)C)C(=O)N[C@@H]([C@@H](C)O)C(=O)N[C@H](C(=O)N2CCCCC2)Cc2cccc1c2 [DP-890] | 47 µL/min/mg |
| CC[C@H](C)[C@@H]1NC(=O)[C@H](Cc2ccccc2)N(C)C(=O)[C@H](Cc2ccccc2)NC(=O)[C@H](CC(C)C)N(C)C(=O)[C@H](C(C)C)NC(=O)[C@H](CC(C)C)NC(=O)[C@H](C)N(C)C(=O)CNC(=O)CCCCCc2ccc(cc2)C[C@@H](C(=O)N2CCCCC2)NC(=O)[C@H]([C@@H](C)O)NC(=O)[C@H](CC(C)C)NC(=O)[C@H](C)N(C)C1=O [DP-891] (G[NMeA]LV[NMeL]F[NMeF]I[NMeA]LT[Phe(4-(CH2)5CO)]-Piperidide; lactam N-12) | 100 µL/min/mg |
| CC[C@H](C)[C@@H]1NC(=O)[C@H](Cc2ccccc2)N(C)C(=O)[C@H](Cc2ccccc2)NC(=O)[C@H](CC(C)C)N(C)C(=O)[C@H](C(C)C)NC(=O)[C@H](CC(C)C)NC(=O)CCCCCc2ccc(cc2)C[C@@H](C(=O)N2CCCCC2)NC(=O)[C@H]([C@@H](C)O)NC(=O)[C@H](CC(C)C)NC(=O)[C@H](C)N(C)C1=O [DP-892] (LV[NMeL]F[NMeF]I[NMeA]LT[Phe(4-(CH2)5CO)]-Piperidide; lactam N-10) | 57 µL/min/mg |
